Test results taken from ChEMBL document CHEMBL3885861, “Open TG-GATES”.

Organism: Rattus norvegicus
Test: Open TG-GATES - Regimen: Daily Repeat
Format: toxicity, organism-based, Sprague-Dawley
Parameters: regimen Daily Repeat, gender Male, age 6 weeks
Details: in vivo, po, 100 mg/kg, route gavage, dose level Low; for APTT / Bas / Eos / Fbg / Hb / Ht / Lym / MCH / MCHC / MCV / Mono / Neu / PT / Plat / RBC / Ret / WBC: tissue Blood; for KIDNEY_L / KIDNEY_R / KIDNEY_TOTAL: tissue Kidney; for LIVER: tissue Liver; for A/G / ALP / ALT / AST / BUN / CRE / Ca / Cl / DBIL / GLC / IP / K / LDH / Na / PL / RALB / TBIL / TC / TG / TP / gamma-GTP: tissue Plasma

Compound: O=C(OC[C@H]1O[C@@H](OC(=O)c2cc(O)c(O)c(OC(=O)c3cc(O)c(O)c(O)c3)c2)[C@H](OC(=O)c2cc(O)c(O)c(OC(=O)c3cc(O)c(O)c(O)c3)c2)[C@@H](OC(=O)c2cc(O)c(O)c(OC(=O)c3cc(O)c(O)c(O)c3)c2)[C@@H]1OC(=O)c1cc(O)c(O)c(OC(=O)c2cc(O)c(O)c(O)c2)c1)c1cc(O)c(O)c(OC(=O)c2cc(O)c(O)c(O)c2)c1 [TANNIC ACID]
- TERMINAL_BW (72 h, time 3 day): 221.9 g
- APTT (72 h, time 3 day): 16.9 s
- Bas (72 h, time 3 day): 0%
- Eos (72 h, time 3 day): 1%
- Fbg (72 h, time 3 day): 234.4 mg/dL
- Hb (72 h, time 3 day): 13.2 g/dL
- Ht (72 h, time 3 day): 39.2%
- Lym (72 h, time 3 day): 72.6%
- MCH (72 h, time 3 day): 22.3 pg
- MCHC (72 h, time 3 day): 33.6%
- MCV (72 h, time 3 day): 66.4 fL
- Mono (72 h, time 3 day): 12.2%
- Neu (72 h, time 3 day): 14.4%
- PT (72 h, time 3 day): 11.5 s
- Plat (72 h, time 3 day): 111.4 x10_4/uL
- RBC (72 h, time 3 day): 590.2 x10_4/ul
- Ret (72 h, time 3 day): 8.8%
- WBC (72 h, time 3 day): 90.6 x10_2/uL
- KIDNEY_L (72 h, time 3 day): 1 g
- KIDNEY_R (72 h, time 3 day): 1 g
- KIDNEY_TOTAL (72 h, time 3 day): 2 g
- LIVER (72 h, time 3 day): 11.1 g
- A/G (72 h, time 3 day): 2.3
- ALP (72 h, time 3 day): 864 IU/L
- ALT (72 h, time 3 day): 33.4 IU/L
- AST (72 h, time 3 day): 61.4 IU/L
- BUN (72 h, time 3 day): 18.8 mg/dL
- CRE (72 h, time 3 day): 0.5 mg/dL
- Ca (72 h, time 3 day): 11 mg/dL
- Cl (72 h, time 3 day): 104.2 meq/L
- DBIL (72 h, time 3 day): 0 mg/dL
- GLC (72 h, time 3 day): 204.8 mg/dL
- IP (72 h, time 3 day): 8.6 mg/dL
- K (72 h, time 3 day): 4.8 meq/L
- LDH (72 h, time 3 day): 68.4 IU/L
- Na (72 h, time 3 day): 139.8 meq/L
- PL (72 h, time 3 day): 154.6 mg/dL
- RALB (72 h, time 3 day): 4 g/dL
- TBIL (72 h, time 3 day): 0.3 mg/dL
- TC (72 h, time 3 day): 84.6 mg/dL
- TG (72 h, time 3 day): 100.8 mg/dL
- TP (72 h, time 3 day): 5.7 g/dL
- gamma-GTP (72 h, time 3 day): 1.2 IU/L
- TERMINAL_BW ([…], time 7 day): 249.2 g
- TERMINAL_BW ([…], time 14 day): 296.1 g
- TERMINAL_BW ([…], time 28 day): 380.6 g
- APTT ([…], time 7 day): 16.3 s
- Bas ([…], time 7 day): 0%
- Eos ([…], time 7 day): 1%
- Fbg ([…], time 7 day): 221.6 mg/dL
- Hb ([…], time 7 day): 13.4 g/dL
- Ht ([…], time 7 day): 40.3%
- Lym ([…], time 7 day): 74.8%
- MCH ([…], time 7 day): 21 pg
- MCHC ([…], time 7 day): 33.3%
- MCV ([…], time 7 day): 63.3 fL
- Mono ([…], time 7 day): 7.4%
- Neu ([…], time 7 day): 16.8%
- PT ([…], time 7 day): 11 s
- Plat ([…], time 7 day): 122.5 x10_4/uL
- RBC ([…], time 7 day): 638.6 x10_4/ul
- Ret ([…], time 7 day): 6.5%
- WBC ([…], time 7 day): 119 x10_2/uL
- APTT ([…], time 14 day): 16.7 s
- Bas ([…], time 14 day): 0%
- Eos ([…], time 14 day): 1%
- Fbg ([…], time 14 day): 261 mg/dL
- Hb ([…], time 14 day): 14.3 g/dL
- Ht ([…], time 14 day): 42.9%
- Lym ([…], time 14 day): 74.5%
- MCH ([…], time 14 day): 20.9 pg
- MCHC ([…], time 14 day): 33.4%
- MCV ([…], time 14 day): 62.6 fL
- Mono ([…], time 14 day): 6.8%
- Neu ([…], time 14 day): 18%
- PT ([…], time 14 day): 11.5 s
- Plat ([…], time 14 day): 129.4 x10_4/uL
- RBC ([…], time 14 day): 685.8 x10_4/ul
- Ret ([…], time 14 day): 4.6%
- WBC ([…], time 14 day): 136 x10_2/uL
- APTT ([…], time 28 day): 15.9 s
- Bas ([…], time 28 day): 0%
- Eos ([…], time 28 day): 1.2%
- Fbg ([…], time 28 day): 230 mg/dL
- Hb ([…], time 28 day): 15.1 g/dL
- Ht ([…], time 28 day): 45%
- Lym ([…], time 28 day): 80.4%
- MCH ([…], time 28 day): 19.9 pg
- MCHC ([…], time 28 day): 33.5%
- MCV ([…], time 28 day): 59.5 fL
- Mono ([…], time 28 day): 5.8%
- Neu ([…], time 28 day): 12.4%
- PT ([…], time 28 day): 12 s
- Plat ([…], time 28 day): 116.4 x10_4/uL
- RBC ([…], time 28 day): 757.4 x10_4/ul
- Ret ([…], time 28 day): 2.8%
- WBC ([…], time 28 day): 142.1 x10_2/uL
- KIDNEY_L ([…], time 7 day): 1 g
- KIDNEY_R ([…], time 7 day): 1 g
- KIDNEY_TOTAL ([…], time 7 day): 2.1 g
- KIDNEY_L ([…], time 14 day): 1.1 g
- KIDNEY_R ([…], time 14 day): 1.2 g
- KIDNEY_TOTAL ([…], time 14 day): 2.3 g
- KIDNEY_L ([…], time 28 day): 1.4 g
- KIDNEY_R ([…], time 28 day): 1.5 g
- KIDNEY_TOTAL ([…], time 28 day): 2.9 g
- LIVER ([…], time 7 day): 12.2 g
- LIVER ([…], time 14 day): 13.7 g
- LIVER ([…], time 28 day): 15.5 g
- A/G ([…], time 7 day): 1.5
- ALP ([…], time 7 day): 796.4 IU/L
- ALT ([…], time 7 day): 32.2 IU/L
- AST ([…], time 7 day): 62.6 IU/L
- BUN ([…], time 7 day): 18.4 mg/dL
- CRE ([…], time 7 day): 0.5 mg/dL
- Ca ([…], time 7 day): 11.1 mg/dL
- Cl ([…], time 7 day): 103.2 meq/L
- DBIL ([…], time 7 day): 0.004 mg/dL
- GLC ([…], time 7 day): 207.4 mg/dL
- IP ([…], time 7 day): 8.3 mg/dL
- K ([…], time 7 day): 4.3 meq/L
- LDH ([…], time 7 day): 87.6 IU/L
- Na ([…], time 7 day): 138 meq/L
- PL ([…], time 7 day): 160.8 mg/dL
- RALB ([…], time 7 day): 3.6 g/dL
- TBIL ([…], time 7 day): 0.4 mg/dL
- TC ([…], time 7 day): 84.2 mg/dL
- TG ([…], time 7 day): 116.2 mg/dL
- TP ([…], time 7 day): 6 g/dL
- gamma-GTP ([…], time 7 day): 1.6 IU/L
- A/G ([…], time 14 day): 1.8
- ALP ([…], time 14 day): 726.5 IU/L
- ALT ([…], time 14 day): 32 IU/L
- AST ([…], time 14 day): 58.2 IU/L
- BUN ([…], time 14 day): 18.5 mg/dL
- CRE ([…], time 14 day): 0.6 mg/dL
- Ca ([…], time 14 day): 10.9 mg/dL
- Cl ([…], time 14 day): 102.8 meq/L
- DBIL ([…], time 14 day): 0.01 mg/dL
- GLC ([…], time 14 day): 207.5 mg/dL
- IP ([…], time 14 day): 8.3 mg/dL
- K ([…], time 14 day): 4.2 meq/L
- LDH ([…], time 14 day): 77 IU/L
- Na ([…], time 14 day): 140 meq/L
- PL ([…], time 14 day): 140.2 mg/dL
- RALB ([…], time 14 day): 3.9 g/dL
- TBIL ([…], time 14 day): 0.3 mg/dL
- TC ([…], time 14 day): 69.5 mg/dL
- TG ([…], time 14 day): 100.2 mg/dL
- TP ([…], time 14 day): 6.1 g/dL
- gamma-GTP ([…], time 14 day): 1.8 IU/L
- A/G ([…], time 28 day): 1.6
- ALP ([…], time 28 day): 659.6 IU/L
- ALT ([…], time 28 day): 34 IU/L
- AST ([…], time 28 day): 64.6 IU/L
- BUN ([…], time 28 day): 20.2 mg/dL
- CRE ([…], time 28 day): 0.6 mg/dL
- Ca ([…], time 28 day): 10.8 mg/dL
- Cl ([…], time 28 day): 106.4 meq/L
- DBIL ([…], time 28 day): 0.006 mg/dL
- GLC ([…], time 28 day): 196.8 mg/dL
- IP ([…], time 28 day): 7.4 mg/dL
- K ([…], time 28 day): 4.3 meq/L
- LDH ([…], time 28 day): 78.2 IU/L
- Na ([…], time 28 day): 139.4 meq/L
- PL ([…], time 28 day): 145.8 mg/dL
- RALB ([…], time 28 day): 3.8 g/dL
- TBIL ([…], time 28 day): 0.3 mg/dL
- TC ([…], time 28 day): 70.6 mg/dL
- TG ([…], time 28 day): 108 mg/dL
- TP ([…], time 28 day): 6.2 g/dL
- gamma-GTP ([…], time 28 day): 2 IU/L
